Assay results reported in patent US8802664B2 (Bioproject, priority 2010, dated 2014).

Key:
human H4 receptor = biological target: T1, human H4 receptor (Homo sapiens, UniProt Q9H3N8); test: [3H]Histamine binding on membranes of CHO cells stably expressing human H4 receptor
T1 construct: expressed in transfected cells
Method in brief: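 Nonspecific signal was taken as that remaining with 10 μM JNJ 7777120 present. Assays contained 20 μg CHO-derived hH4 membrane protein in Tris/HCl–EDTA buffer (pH 7.4) and were terminated on polyethyleneimine-soaked filters, with bound tritium quantified by scintillation.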

Structure (SMILES)	melting point	Ki or IC50 activity class (human H4 receptor)
Cc1cc(C(OC2CCN(C)CC2)c2nc3ccccc3[nH]2)c(O)c(F)c1C (stereo not shown) [Example 622]	163 °C	< 300 nM
CN1CCC(OC(c2cccc(SCCC3CCCCN3)c2)c2nc3ccccc3[nH]2)CC1 (stereo not shown) [Example 395, 2-{(1-methylpiperidin-4-yloxy)[3-(2-piperidin-2-yl-ethylsulfanyl)phenyl]methyl}-1H-benzimidazole]	164 °C	< 300 nM
CN1CCC(OC(c2cccc(C#CCCCNC(=N)NC(=O)OC(C)(C)C)c2)c2nc3ccccc3s2)CC1 (stereo not shown) [Example 339, N-tert-butoxycarbonyl-N′-(5-{3-[(benzothiazol-2-yl)(1-methylpiperidin-4-yloxy)methyl]phenyl}pent-5-ynyl)guanidine]	125 °C	< 300 nM
CN1CCC(OC(c2nc3ccccc3[nH]2)c2cc(SCCCF)ccc2O)CC1 (stereo not shown) [Example 612]	128 °C	< 30 nM
CN1CCC(OC(c2cccc(C#CCCO)c2)c2nc3ccccc3[nH]2)CC1 (stereo not shown) [Example 191, 4-{3-[(1H-benzimidazol-2-yl)(1-methylpiperidin-4-yloxy)methyl]phenyl}but-3-yn-1-ol]	104 to 108 °C	< 300 nM
CN1CCC(OC(c2ccc(C(F)(F)F)cc2)c2nc3ccccc3[nH]2)CC1 (stereo not shown) [Example 537]	86 °C	< 1000 nM
CN1CCC(OC(c2nc3ccccc3[nH]2)c2cc(C(C)(C)c3ccccc3)ccc2O)CC1 (stereo not shown) [Example 604]	130 °C	< 300 nM
CSc1ccc(O)c(C(OC2CCN(C)CC2)c2nc3ccccc3[nH]2)c1 (stereo not shown) [Example 587]	138 °C	< 30 nM
CN1CCC(OC(c2nc3ccccc3[nH]2)c2cccc(OC(F)(F)F)c2O)CC1 (stereo not shown) [Example 620]	126 °C	< 30 nM
COc1cccc(C(OC2CCN(C)CC2)c2nc3ccccc3[nH]2)c1O (stereo not shown) [Example 592]	112 °C	< 300 nM
COc1ccc(-c2cccc(C(OC3CCN(C)CC3)c3nc4ccccc4[nH]3)c2)cc1 (stereo not shown) [Example 183, 2-[(4′-methoxybiphenyl-3-yl)(1-methylpiperidin-4-yloxy)methyl]-1H-benzimidazole]	92 °C	< 300 nM
CN1CCC(OC(c2cccc(-c3ccc(C(F)(F)F)cc3)c2)c2nc3ccccc3[nH]2)CC1 (stereo not shown) [Example 119, 2-[(1-methylpiperidin-4-yloxy)(4′-trifluoromethylbiphenyl-3-yl)methyl]-1H-benzimidazole]	95 °C	< 300 nM
CN1CCC(OC(c2cccc(C#CCO)c2)c2nc3ccccc3[nH]2)CC1 (stereo not shown) [Example 190, 3-{3-[(1H-benzimidazol-2-yl)(1-methylpiperidin-4-yloxy)methyl]phenyl}prop-2-yn-1-ol]	117 to 120 °C	< 300 nM
Cc1cc(O)c(C(OC2CCN(C)CC2)c2nc3ccccc3[nH]2)cc1C (stereo not shown) [Example 611]	139 °C	< 30 nM
CN1CCC(NC(c2cccc(OCCCC(F)(F)F)c2)c2nc3ccccc3[nH]2)CC1 (stereo not shown) [Example 175, {(1H-benzimidazol-2-yl)[3-(4,4,4-trifluoro-butoxy)phenyl]methyl}(1-methylpiperidin-4-yl)amine]	94 °C	< 300 nM
CN1CCC(OC(c2cccc(SCCCCO)c2)c2nc3cc(F)ccc3[nH]2)CC1 (stereo not shown) [Example 427, 4-{3-[(5-fluoro-1H-benzimidazol-2-yl)(1-methylpiperidin-4-yloxy)methyl]phenylsulfanyl}butan-1-ol]	85 °C	< 300 nM
Cc1ccc(C(OC2CCN(C)CC2)c2nc3ccccc3[nH]2)cc1Br (stereo not shown) [Example 261, 2-[(3-bromo-4-methylphenyl)(1-methylpiperidin-4-yloxy)methyl]-1H-benzimidazole]	92 °C	< 300 nM

Other lines, results leading:

melting point	Ki or IC50 activity class (human H4 receptor)	Structure (SMILES)
100 °C	< 300 nM	CN1CCC(OC(c2cccc(N)c2)c2nc3ccccc3[nH]2)CC1 (stereo not shown) [Example 224, 3-[(1H-benzimidazol-2-yl)(1-methylpiperidin-4-yloxy)methyl]phenylamine]
109 °C	< 1000 nM	CN1CCC(NC(c2cccnc2)c2nc3ccccc3s2)CC1 (stereo not shown) [Example 52, (benzothiazol-2-ylpyridin-3-ylmethyl)(1-methylpiperidin-4-yl)amine]
173.5 °C	< 30 nM	CN1CCC(OC(c2cccc(I)c2)c2nc3ccccc3[nH]2)CC1 (stereo not shown) [Example 51, 2-[(3-iodophenyl)(1-methylpiperidin-4-yloxy)methyl]-1H-benzimidazole]
96.7 °C	< 300 nM	CN1CCC(OC(c2ccccc2)c2nc3cccc(N)c3[nH]2)CC1 (stereo not shown) [Example 200, 2-[(1-methylpiperidin-4-yloxy)phenyl-methyl]-3H-benzimidazol-4-ylamine]
133 °C	< 300 nM	CN1CCC(NC(c2ccccc2)c2nc3ccccc3[nH]2)CC1 (stereo not shown) [Example 39, [(1H-benzimidazol-2-yl)phenylmethyl](1-methylpiperidin-4-yl)amine]
125 °C	< 300 nM	CN1CCC(NC(c2ccc[nH]2)c2nc3ccccc3s2)CC1 (stereo not shown) [Example 58, [benzothiazol-2-yl(1H-pyrrol-2-yl)methyl](1-methylpiperidin-4-yl)amine]
97 °C	< 1000 nM	CN1CCC(NC(c2cccc(OC3CCCCO3)c2)c2nc3ccccc3[nH]2)CC1 (stereo not shown) [Example 120, {(1H-benzimidazol-2-yl)[3-(tetrahydropyran-2-yloxy)phenyl]methyl}(1-methylpiperidin-4-yl)amine]
230 °C	< 300 nM	CN1CCC(NC(c2cccc(O)c2)c2nc3ccccc3[nH]2)CC1 (stereo not shown) [Example 126, 3-[(1H-benzimidazol-2-yl)(1-methylpiperidin-4-ylamino)methyl]phenol]
107 °C	< 1000 nM	CN1CCC(OC(c2cccc(-c3ccccc3CO)c2)c2nc3ccccc3[nH]2)CC1 (stereo not shown) [Example 123, {3′-[(1H-benzimidazol-2-yl)(1-methylpiperidin-4-yloxy)methyl]biphenyl-2-yl}methanol]
